Test [1] concerns IL-1β release in LPS-activated BV-2 cells. The test is described as follows: Secretion of IL-1β in activated BV-2 cells (ELISA). It counts as cell-based, murine. Particulars: 0.1 μM for 24 h, then 100 ng/mL LPS for 24 h, compared to LPS-treated cells.
Test [2] has as its system TNF-α, IL-1β, iNOS and COX-2 mRNA in LPS-induced BV-2 cells. Briefly: Expression of proinflammatory cytokines and enzymes in LPS-induced BV-2 cells (real-time PCR). Particulars: 0.1 μM for 24 h, then 100 ng/mL LPS for 24 h, compared to LPS. It is filed as cell-based, murine.
Test [3] concerns RAW264.7 murine macrophage cell line. On the set-up: method as in PMID 29890972. Conditions: 50 μM; cited from earlier work.

On to `COC(=O)c1c(CCCCCCCCNc2c3c(nc4cc(Cl)ccc24)CCCC3)cccc1OC` [Compound 6, Methyl 2-(8-((6-Chloro-1,2,3,4-tetrahydroacridin-9-yl)amino)octyl)-6-methoxybenzoate], for which, in test [1], the “release of IL-1β in the culture medium” value was “significantly decrease”. Besides, in test [2], the “COX-2 mRNA expression” value is recorded as “significantly reduce”, the “IL-1β mRNA expression” value is listed as “significantly reduce”, the “TNF-α mRNA expression” value was “significantly reduce” and the “iNOS mRNA expression” value is on record as “significantly reduce”.
Turning to `CCCCCCCCCCCCCCCc1cccc(O)c1C(=O)O` [Compound 1a, reference compound], in test [3], the “expression of TNF-α, iNOS, COX-2, NF-κB, IL-1β, and IL-6” value is “significantly reduce”. For the same molecule, in test [2], the “COX-2 mRNA expression” value was “reduced”; the “IL-1β mRNA expression” value is listed as “reduced”; the “TNF-α mRNA expression” value was “reduced only the expression of IL-1β and COX-2”; the “iNOS mRNA expression” value is “reduced only the expression of IL-1β and COX-2”.
Turning to `COC(=O)c1c(CCCCCCCCNc2c3c(nc4ccccc24)CCCC3)cccc1OC` [Compound 5, Methyl 2-Methoxy-6-(8-((1,2,3,4-tetrahydroacridin-9-yl)amino)octyl)benzoate], in test [1], the “release of IL-1β in the culture medium” value is “significantly decrease”. Further, in test [2], the “COX-2 mRNA expression” value is given as “significantly downregulated”, the “IL-1β mRNA expression” value is “significantly downregulated”, the “TNF-α mRNA expression” value is recorded as “not TNF-α” and the “iNOS mRNA expression” value is recorded as “significantly downregulated”.

These data come from article PMC8154578, “Sustainable Drug Discovery of Multi-Target-Directed Ligands for Alzheimer’s Disease” (Journal of Medicinal Chemistry, 2021).
